Each structure is given as a SMILES string. Values joined by “and” are separate entries in the source; they are usually repeats but may differ in a detail not shown here. Identical values can stand only once.

This data set can be described thus: rat acute oral toxicity. To be noted: in vivo.
With `CNS(=O)(=O)c1cc(OC)c(N)cc1OC`, the LD50 (commonly the dose expected to kill half of the subjects tested) was determined as 815 mg/kg.
With `CCOC(=O)CC(O)(CC(=O)OCC)C(=O)OCC`, the LD50 turned out to be 5900 mg/kg.
The value for `C1=CCCC=CCCC=CCC1` was 1780 mg/kg; that for `CCCN(CCC)C(=O)SCC` was 916 mg/kg; that for `CC1(C)OC[C@@H]2O[C@@]3(C(=O)O)OC(C)(C)O[C@H]3[C@@H]2O1` was 18000 mg/kg.
The result for `Cc1cc(C)cc(N)c1` reads 707 mg/kg.
The result for `CSc1ccc2c(c1)N(CCC1CCCCN1C)c1ccccc1S2` (stereo unspecified) reads 995 mg/kg; that for `Cc1cccc(N)c1C`, 930 mg/kg; that for `CN1CCC[C@H]1c1cccnc1`, 51.2 mg/kg.
In turn, `CCCOCC(C)OCC(C)O` (stereo unspecified) came in with an LD50 of 1500 mg/kg. This LD50 lies about 29-fold higher than the previous one.
The result for `COP(=O)(OC)O/C(=C\Cl)c1cc(Cl)c(Cl)cc1Cl` reads 480 mg/kg; that for `C=C(C)[C@H]1Cc2c(ccc3c2O[C@@H]2COc4cc(OC)c(OC)cc4[C@@H]2C3=O)O1`, 25 mg/kg.
The value for `CC(=O)c1ccccc1` was 858 mg/kg; that for `ClC(Cl)C(Cl)Cl` was 200 mg/kg; that for `CCOP(c1ccccc1)c1ccccc1` was 316 mg/kg.
For the compound `O=C(O)c1cc(Oc2ccc(C(F)(F)F)cc2Cl)ccc1[N+](=O)[O-]`, the LD50 is 1300 mg/kg. Against the preceding compound, the LD50 is about 4.1-fold higher.
The value for `CCCSP(=S)(OCC)Oc1ccc(SC)cc1` (stereo unspecified) was 65 mg/kg.
The value for `CCCOP(=O)(OCCC)Oc1ccc(SC)cc1` was 61 mg/kg.
`O=CCCCC=O` had a median lethal dose (LD50) of 134 mg/kg.
The result for `COCCO` reads 2260 mg/kg.
The result for `CCCC(=O)Nc1ccc(OCC(O)CNC(C)C)c(C(C)=O)c1` (stereo unspecified) reads 3200 mg/kg; that for `COCCOCCOCCOCCOC`, 3850 mg/kg; that for `CC1(C)CC(=O)CC(C)(C#N)C1` (stereo unspecified), 61.6 mg/kg.
The result for `OC[P+](CO)(CO)CO` reads 161 mg/kg; that for `CNC(=O)ON=C1C(Cl)C2CC(C#N)C1C2` (stereo unspecified), 19 mg/kg.
With `Cc1ccc(S(C)(=O)=O)cc1[N+](=O)[O-]`, the LD50 came to 933 mg/kg.
As for `CCNc1nc(NC(C)C)nc(SC)n1`, the median lethal dose (LD50) was found to be 1060 mg/kg. The LD50 values of the last two compounds are within 1.5-fold of each other.
Consider `CCC(C)=NO`, for which the LD50 was found to be 930 mg/kg.
In turn, `Cc1cc(O)ccc1Cl` returned an LD50 of 1830 mg/kg.
The value for `CCOC(=O)CC(SP(=S)(OC)OC)C(=O)OCC` (stereo unspecified) was 1190 mg/kg.
For `CC1(C)C(=O)N(Br)C(=O)N1Cl`, the LD50 stood at 485 mg/kg.
The compound `CC#N` gave a median lethal dose (LD50) of 2490 mg/kg.
With `ClC1=C(Cl)C2(Cl)C3C(Cl)C(Cl)CC3C1(Cl)C2(Cl)Cl` (stereo unspecified), the LD50 was 200 mg/kg.
The value for `CC(O)COCC(C)O` (stereo unspecified) was 14800 mg/kg; that for `CC(CC=O)CC(C)(C)C` (stereo unspecified) was 3240 mg/kg.
In turn, `ClCCl` showed an LD50 of 1500 mg/kg.
The value for `CC(=O)Oc1ccccc1C(=O)O` was 1280 mg/kg.
`CCCCOC(=O)COc1ccc(Cl)cc1Cl`: the LD50 is 600 mg/kg.
`CCCCCC(C)OC(=O)COc1ccc(Cl)c2cccnc12` (stereo unspecified) displayed a median lethal dose (LD50) of 1100 mg/kg.
As to `ClC(Cl)Br`, the LD50 came to 916 mg/kg.
Compound `Clc1ccc(-c2ccc(Cl)c(Cl)c2Cl)c(Cl)c1Cl` displayed an LD50 of 1300 mg/kg.
The compound `O=[N+]([O-])c1ccc(Oc2ccc(Cl)cc2Cl)cc1` displayed an LD50 of 2410 mg/kg. This LD50 is about 1.9-fold higher than that of the compound before.
`CCC(C)Nc1c([N+](=O)[O-])cc(C(C)(C)C)cc1[N+](=O)[O-]` (stereo unspecified) gave an LD50 of 1050 mg/kg.
The value for `Cn1cnc([N+](=O)[O-])c1Sc1ncnc2nc[nH]c12` was 400 mg/kg.
The result for `O=Cc1ccco1` reads 100 mg/kg; that for `CC1(C)C(C(=O)OC(C#N)c2cccc(Oc3ccccc3)c2)C1(C)C` (stereo unspecified), 66.7 mg/kg.
The value for `CCC(C)C=O` (stereo unspecified) was 6400 mg/kg; that for `CC(C)N(C(=O)COc1nnc(C(F)(F)F)s1)c1ccc(F)cc1` was 480 mg/kg; that for `CC[C@H]1OC(=O)[C@H](C)[C@@H](O[C@H]2C[C@@](C)(OC)[C@@H](O)[C@H](C)O2)[C@H](C)[C@@H](O[C@@H]2O[C@H](C)C[C@H](N(C)C)[C@H]2O)[C@](C)(O)C[C@@H](C)C(=O)[C@H](C)[C@@H](O)[C@]1(C)O` was 4600 mg/kg.
In turn, `C#CCOS(=O)OC1CCCCC1Oc1ccc(C(C)(C)C)cc1` (stereo unspecified) returned an LD50 of 2200 mg/kg.
`NCCCCCCN` yielded an LD50 of 750 mg/kg.
The result for `CC(=O)OCCc1ccccc1` reads 3670 mg/kg.
Compound `C=CC(=O)OCCO` displayed an LD50 of 548 mg/kg.
For the compound `CCC(=O)O`, the LD50 was determined as 2600 mg/kg.
`CC(C)C(C(=O)OC(C#N)c1cccc(Oc2ccccc2)c1)c1ccc(Cl)cc1` (stereo unspecified): the LD50 came out at 135 mg/kg.
`CCCCCCCCCCCCCCN(C)C` returned an LD50 of 1320 mg/kg.
The result for `CC1(C)C(C=C(Br)Br)C1C(=O)OC(C#N)c1cccc(Oc2ccccc2)c1` (stereo unspecified) reads 40.5 mg/kg.
For `O=C1C2CC=CCC2C(=O)N1SC(Cl)(Cl)Cl` (stereo unspecified), the median lethal dose (LD50) was 9000 mg/kg.
The value for `CC(=O)N[C@@H](CS)C(=O)O` was 3000 mg/kg.
The value for `CCCCC(C#N)(Cn1cncn1)c1ccc(Cl)cc1` (stereo unspecified) was 1600 mg/kg; that for `C=CCn1c(=O)n(CC=C)c(=O)n(CC=C)c1=O` was 707 mg/kg; that for `CCOP(=O)(SC(C)CC)SC(C)CC` (stereo unspecified) was 37.1 mg/kg.
With `C#CC(C)(C)O`, the LD50 turned out to be 1420 mg/kg.
The value for `N#C/N=C1\SCCN1Cc1ccc(Cl)nc1` was 285 mg/kg; that for `COP(=S)(OC)Oc1ccc([N+](=O)[O-])c(C)c1` was 250 mg/kg; that for `CCOP(=O)(OCC)OP(=O)(OCC)OCC` was 0.5 mg/kg.
For the compound `O=P(OCCCl)(OCCCl)OCCCl`, the 50% lethal dose (LD50) came to 466 mg/kg.
The compound `CC(C)c1ccc(-c2ccccc2)cc1` had a 50% lethal dose (LD50) of 4570 mg/kg.
Compound `Oc1cc(Cl)c(Cl)cc1Cl` returned an LD50 of 820 mg/kg.
Turning to `Nc1ccc([N+](=O)[O-])cc1`, the median lethal dose (LD50) was found to be 750 mg/kg.
`O=c1oc2ccccc2c(O)c1C1CC(c2ccc(OCc3ccc(C(F)(F)F)cc3)cc2)Cc2ccccc21` (stereo unspecified) gave a 50% lethal dose (LD50) of 0.25 mg/kg.
The value for `CC(C)Nc1nc(Cl)nc(NC2CC2)n1` was 516 mg/kg; that for `CN(C)c1nc(=O)n(C2CCCCC2)c(=O)n1C` was 1200 mg/kg; that for `N#CO` was 567 mg/kg and 582 mg/kg.
The value for `ClC(Cl)c1ccccc1` was 3250 mg/kg; that for `Cc1cccc(N=C=O)c1` was 2930 mg/kg; that for `O=C=NCc1cccc(CN=C=O)c1` was 3200 mg/kg.
In turn, `CC(=O)C=C(C)C` had an LD50 of 300 mg/kg.
The value for `CNc1ccccc1` was 716 mg/kg; that for `CCCCOCCOC(=O)COc1ccc(Cl)cc1Cl` was 831 mg/kg; that for `c1ccc2[nH]c(-c3cscn3)nc2c1` was 2080 mg/kg.
The result for `O=C(O)CCS` reads 63 mg/kg; that for `Oc1ccc(Cl)cc1Cc1cc(Cl)ccc1O`, 1510 mg/kg; that for `CCOc1ccc(NC(N)=O)cc1`, 1900 mg/kg.
In the case of `CCCCCCCCCCCCCCCCCC[N+](C)(C)C`, the LD50 was 702 mg/kg. Against the preceding compound, the LD50 is about 2.7-fold lower.
In turn, `CCC(=O)OCc1ccccc1` showed an LD50 of 3300 mg/kg.
Consider `CCCCCCCCCCCCCCCCCCOCCO`, for which the LD50 was 1900 mg/kg.
The result for `O=C(CCl)c1ccccc1` reads 50 mg/kg; that for `COCC(=O)N(c1c(C)cccc1C)C(C)C(=O)OC` (stereo unspecified), 566 mg/kg; that for `CCCCOCC1CO1` (stereo unspecified), 1660 mg/kg.
The result for `COC(C)(C)CCCC(C)C/C=C/C(C)=C/C(=O)OC(C)C` (stereo unspecified) reads 2320 mg/kg; that for `O=C1CCCN1`, 328 mg/kg; that for `Sc1ccccc1`, 46 mg/kg.
The value for `Cc1ccccc1C(OCCN(C)C)c1ccccc1` (stereo unspecified) was 255 mg/kg; that for `Cc1cccnc1` was 400 mg/kg; that for `Clc1ccc(C(Cl)Cl)cc1` was 1910 mg/kg.
Turning to `CC1(C)CC(=O)CC(C)(C)N1`, the LD50 turned out to be 1330 mg/kg.
Compound `CCC(=O)O[C@](Cc1ccccc1)(c1ccccc1)[C@H](C)CN(C)C` showed an LD50 of 135 mg/kg.
The result for `CC(C1CC1)C(O)(Cn1cncn1)c1ccc(Cl)cc1` (stereo unspecified) reads 350 mg/kg.
The result for `Clc1cc2c(c(Cl)c1Cl)Oc1c(cc(Cl)c(Cl)c1Cl)O2` reads 0.8 mg/kg.
The value for `Cc1ccc(S(N)(=O)=O)cc1` was 2330 mg/kg.
Consider `CNC(=O)Oc1cc(C)cc(C)c1`, for which the LD50 was 245 mg/kg. Against the preceding compound, the LD50 is about 9.5-fold lower.
The value for `COc1ccc(C(=CC(=O)N2CCOCC2)c2ccc(Cl)cc2)cc1OC` was 3900 mg/kg.
The result for `CN(C)C(C)(C)CO` reads 1660 mg/kg; that for `COc1ccc(C(CN)C2(O)CCCCC2)cc1` (stereo unspecified), 200 mg/kg.
As for `COc1cc(OC)nc(Oc2cccc(Oc3nc(OC)cc(OC)n3)c2C(=O)O)n1`, the 50% lethal dose (LD50) turned out to be 2640 mg/kg.
The value for `NC(=S)Nc1cccc2ccccc12` was 3 mg/kg.
The result for `CS(=O)(=O)O` reads 200 mg/kg; that for `O=C=NC1CCC(CC2CCC(N=C=O)CC2)CC1` (stereo unspecified), 1060 mg/kg.
The result for `C=CCCl` reads 284 mg/kg; that for `C=CC(C#N)OC(C)=O` (stereo unspecified), 31.6 mg/kg; that for `C=CCCCC=CCOC`, 4900 mg/kg.
In turn, `CCCCOCCOCCO` displayed an LD50 of 5080 mg/kg.
On to `CCCCCCCCC=CCCCCCCCCN(CCO)CCO`, for which the LD50 was 1260 mg/kg.
For the compound `COc1ccc(C(c2ccc(OC)cc2)C(Cl)(Cl)Cl)cc1`, the median lethal dose (LD50) turned out to be 1860 mg/kg.
`COC(=O)Nc1ccc(Cl)c(Cl)c1` came in with an LD50 of 522 mg/kg.
Compound `N#CCNC(=O)c1cnccc1C(F)(F)F` returned an LD50 of 884 mg/kg.
The value for `ClC(Cl)=C(Cl)C(Cl)=C(Cl)Cl` was 82 mg/kg; that for `CC(C)(C)OOC(=O)c1ccccc1` was 1010 mg/kg; that for `CN(C)C(=O)Nc1ccc(Oc2ccc(Cl)cc2)cc1` was 3000 mg/kg.
Take `Nc1nc[nH]n1`: the LD50 worked out at 1100 mg/kg.
The result for `CNN` reads 32 mg/kg; that for `C=C(C)C(N)=O`, 1650 mg/kg; that for `CCOC(=O)CCN(SN(C)C(=O)Oc1cccc2c1OC(C)(C)C2)C(C)C`, 105 mg/kg.
Take `CCCCCCCCCCCCOS(=O)(=O)O`: the LD50 is 977 mg/kg.
The value for `NC1CCCCC1` was 11 mg/kg; that for `CC1CCC(CO)CC1` (stereo unspecified) was 707 mg/kg.
Compound `CCCCCCCC/C=C\CCCCCCCCNCCCN` yielded an LD50 of 500 mg/kg.
The result for `CCCCCCCC[Si](OCC)(OCC)OCC` reads 11500 mg/kg; that for `CC(C)(C)c1ccc(CCOc2ncnc3ccccc23)cc1`, 134 mg/kg.
The value for `Nc1ccncc1` was 14 mg/kg; that for `CCCCSP(SCCCC)SCCCC` was 910 mg/kg; that for `ClC=CCCl` was 110 mg/kg.
`CC(C)C(=O)c1ccccc1` gave an LD50 of 1950 mg/kg.
In turn, `Oc1ccc(O)cc1` showed an LD50 of 302 mg/kg.
The result for `C#C[C@]1(O)CC[C@H]2[C@@H]3CCc4cc(O)ccc4[C@H]3CC[C@@]21C` reads 960 mg/kg.

The record behind these values is the CATMoS acute toxicity set (Mansouri et al. 2021).
